Test results as given in patent US10590129B2 (Incozen Therapeutics Pvt. Ltd., priority 2010, dated 2020).
Structures can show the parent of a compound that is named as a salt.

Columns and labels:
MKN-45 cells = assay: Inhibition of MKN-45 proliferation (MTT); format: cell-based, human
Procedure: Inhibition of MKN-45 Proliferation:
Cell proliferation assays were carried out using the high Met expressing human gastric adenocarcinoma cell line, MKN-45, according to the following schedule:
Day 1: Cells were plated in 96-well plates in complete growth medium.
Day 2: Compounds at desired concentrations were added.
Day 5: Cell viability was determined using the 3-[4,5-dimethylthiazol-2-yl]-2,5-diphenyltetrazolium bromide (MTT) dye reduction test.

[1] = Homo sapiens, MKN-45, MKN-45 proliferation, 1 μM
[2] = Homo sapiens, MKN-45, MKN-45 proliferation, 0.1 μM

Row | Compound | melting point [°C] | inhibition at 1 µM (MKN-45 cells; [1]) [%] | inhibition at 0.1 µM (MKN-45 cells; [2]) [%] | further results
1 | COc1ccc(-c2ccc3nnn(Cc4ccc5ncccc5c4)c3n2)cc1 [Ex 1, 6-((5-(4-Methoxyphenyl)-3H-[1,2,3]triazolo[4,5-b]pyridin-3-yl)methyl)quinoline] | 144 to 146 | 25 to 50 | – | –
2 | OCc1ccc(-c2ccc3nnn(Cc4ccc(F)cc4)c3n2)cc1 [Ex 11, (4-(3-(4-Fluorobenzyl)-3H-[1,2,3]triazolo[4,5-b]pyridin-5-yl)phenyl)methanol] | 210 to 213 | – | – | –
3 | O=C(O)c1ccc(-c2ccc3nnn(Cc4c(F)ccc(F)c4Cl)c3n2)cc1F [Ex 18, 4-(3-(2-Chloro-3,6-difluorobenzyl)-3H-[1,2,3]triazolo[4,5-b]pyridin-5-yl)-2-fluorobenzoic acid] | 211 to 213 | < 25 | – | –
4 | CNC(=O)c1ccc(-c2ccc3nnn(Cc4c(F)ccc(F)c4Cl)c3n2)cc1F [Ex 19, 4-(3-(2-Chloro-3,6-difluorobenzyl)-3H-[1,2,3]triazolo[4,5-b]pyridin-5-yl)-2-fluoro-N-methylbenzamide] | 213 to 215 | < 25 | – | –
5 | FC(F)(F)Oc1cccc(-c2ccc3nnn(Cc4ccc5ncccc5c4)c3n2)c1 [Ex 23, 6-((5-(3-(trifluoromethoxy)phenyl)-3H-[1,2,3]triazolo[4,5-b]pyridin-3-yl)methyl)quinoline] | 140 to 142 | < 25 | – | –
6 | Oc1cccc(-c2ccc3nnn(Cc4ccc5ncccc5c4)c3n2)c1 [Ex 24, 3-(3-(quinolin-6-ylmethyl)-3H-[1,2,3]triazolo[4,5-b]pyridin-5-yl)phenol] | 255 to 257 | < 25 | – | –
7 | FC(F)Oc1cccc(-c2ccc3nnn(Cc4ccc5ncccc5c4)c3n2)c1 [Ex 25, 6-((5-(3-(difluoromethoxy)phenyl)-3H-[1,2,3]triazolo[4,5-b]pyridin-3-yl)methyl) quinoline] | 122 to 125 | < 25 | – | –
8 | Nc1ccc(-c2ccc3nnn(Cc4ccc5ncccc5c4)c3n2)cc1 [Ex 64, 4-(3-(quinolin-6-ylmethyl)-3H-[1,2,3]triazolo[4,5-b]pyridin-5-yl)aniline] | 190 to 193 | 25 to 50 | – | –
9 | COc1ccc(-c2ccc3nnn(Cc4ccc5ncccc5c4)c3n2)cc1OC [Ex 65, 6-((5-(3,4-Dimethoxyphenyl)-3H-[1,2,3]triazolo[4,5-b]pyridin-3-yl)methyl)quinoline] | 149 to 152 | < 25 | < 25 | –
10 | O=C(NC1CC1)c1ccc(-c2ccc3nnn(Cc4ccc5ncccc5c4)c3n2)cc1Cl [Ex 113, 2-Chloro-N-cyclopropyl-4-(3-(quinolin-6-ylmethyl)-3H-[1,2,3]triazolo[4,5-b]pyridin-5-yl)benzamide] | 197 to 199 | – | – | –
11 | CCCn1cc(-c2ccc3nnn(Cc4ccc5ncccc5c4)c3n2)cn1 [Ex 153, 6-((5-(1-Propyl-1H-pyrazol-4-yl)-3H-[1,2,3]triazolo[4,5-b]pyridin-3-yl)methyl)quinoline] | 128 to 130 | – | – | –
12 | O=C(O)Cn1cc(-c2ccc3nnn(Cc4ccc5ncccc5c4)c3n2)cn1 [Ex 155, 2-(4-(3-(Quinolin-6-ylmethyl)-3H-[1,2,3]triazolo[4,5-b]pyridin-5-yl)-1H-pyrazol-1-yl)acetic acid] | > 270 | – | – | –
13 | O[C@@H]1CCN(c2ccc3nnn(Cc4ccc5ncccc5c4)c3n2)C1 [Ex 158, (R)-1-(3-(Quinolin-6-ylmethyl)-3H-[1,2,3]triazolo[4,5-b]pyridin-5-yl)pyrrolidin-3-ol] | 167 to 169 | – | – | –
14 | OCCn1cc(-c2ccc3nnn(Cc4ccc(F)cc4)c3n2)cn1 [Ex 161, 2-(4-(3-(4-Fluorobenzyl)-3H-[1,2,3]triazolo[4,5-b]pyridin-5-yl)-1H-pyrazol-1-yl)ethanol] | 204 to 206 | – | – | –
15 | OCCn1cc(-c2ccc3nnn(Cc4c(F)ccc(F)c4Cl)c3n2)cn1 [Ex 165, 2-(4-(3-(2-Chloro-3,6-difluorobenzyl)-3H-[1,2,3]triazolo[4,5-b]pyridin-5-yl)-1H-pyrazol-1-yl)ethanol] | 143 to 145 | – | – | –
16 | NC(=O)c1ccc(-c2ccc3nnn(Cc4ccc5c(ccc[n+]5[O-])c4)c3n2)cc1Cl [Ex 224, 6-((5-(4-carbamoyl-3-chlorophenyl)-3H-[1,2,3]triazolo[4,5-b]pyridin-3-yl)methyl)quinoline 1-oxide] | – | – | 25 to 50 | –
17 | CCNC(=O)c1ccc(-c2ccc3nnn(Cc4ccc5ncccc5c4)c3n2)cc1Cl [Ex 225, 2-chloro-N-ethyl-4-(3-(quinolin-6-ylmethyl)-3H-[1,2,3]triazolo[4,5-b]pyridin-5-yl)benzamide hydrochloride] | – | 50 to 75 | 75 to 100 | –

Continued, in another order:

Row | melting point [°C] | Compound | inhibition at 1 µM (MKN-45 cells; [1]) [%] | inhibition at 0.1 µM (MKN-45 cells; [2]) [%] | further results
18 | 137 to 140 | CN(C)CCCNC(=O)c1ccc(-c2ccc3nnn(Cc4ccc5ncccc5c4)c3n2)cc1F (as salt: hydrochloride) [Ex 121, N-(3-(dimethylamino)propyl)-2-fluoro-4-(3-(quinolin-6-ylmethyl)-3H-[1,2,3]triazolo[4,5-b]pyridin-5-yl)benzamide dihydrochloride] | – | – | –
19 | 191 to 193 | OCc1cccc(-c2ccc3nnn(Cc4ccc5ncccc5c4)c3n2)c1 [Ex 4, (3-(3-(quinolin-6-ylmethyl)-3H-[1,2,3]triazolo[4,5-b]pyridin-5-yl)phenyl)methanol] | – | – | GI50 (MKN-45 cells; Homo sapiens, MKN-45, MKN-45 proliferation): 150 to 500 nM
20 | 172 to 175 | O=C(NC1CCCCC1)c1ccc(-c2ccc3nnn(Cc4ccc5ncccc5c4)c3n2)cc1F [Ex 45, N-cyclohexyl-2-fluoro-4-(3-(quinolin-6-ylmethyl)-3H-[1,2,3]triazolo[4,5-b]pyridin-5-yl)benzamide] | – | – | –
21 | 217 to 219 | O=C(Nc1ccncc1)c1ccc(-c2ccc3nnn(Cc4ccc5ncccc5c4)c3n2)cc1F [Ex 47, 2-Fluoro-N-(pyridin-4-yl)-4-(3-(quinolin-6-ylmethyl)-3H-[1,2,3]triazolo[4,5-b]pyridin-5-yl)benzamide] | 50 to 75 | < 25 | –
22 | 163 to 165 | O=C(NCc1ccccc1)c1ccc(-c2ccc3nnn(Cc4ccc5ncccc5c4)c3n2)cc1F [Ex 48, N-Benzyl-2-fluoro-4-(3-(quinolin-6-ylmethyl)-3H-[1,2,3]triazolo[4,5-b]pyridin-5-yl)benzamide] | 75 to 100 | < 25 | –
23 | 163 to 165 | CN(C)C(=O)c1ccc(-c2ccc3nnn(Cc4ccc5ncccc5c4)c3n2)cc1F [Ex 49, 2-Fluoro-N,N-dimethyl-4-(3-(quinolin-6-ylmethyl)-3H-[1,2,3]triazolo[4,5-b]pyridin-5-yl)benzamide] | 25 to 50 | < 25 | –
24 | 252 to 254 | O=C(O)CNC(=O)c1ccc(-c2ccc3nnn(Cc4ccc5ncccc5c4)c3n2)cc1F [Ex 51, 2-(2-Fluoro-4-(3-(quinolin-6-ylmethyl)-3H-[1,2,3]triazolo[4,5-b]pyridin-5-yl)benzamido)acetic acid] | < 25 | < 25 | –
25 | 145 to 147 | Fc1cccc(-c2ccc3nnn(Cc4ccc5ncccc5c4)c3n2)c1 [Ex 56, 6-((5-(3-Fluorophenyl)-3H-[1,2,3]triazolo[4,5-b]pyridin-3-yl)methyl)quinoline] | < 25 | < 25 | –
26 | 201 to 202 | CON(C)C(=O)c1ccc(-c2ccc3nnn(Cc4ccc5ncccc5c4)c3n2)cc1F.Cl [Ex 59, 2-Fluoro-N-methoxy-N-methyl-4-(3-(quinolin-6-ylmethyl)-3H-[1,2,3]triazolo[4,5-b]pyridin-5-yl)benzamide hydrochloride] | 50 to 75 | < 25 | –
27 | 210 to 212 | CC(C)(C)NC(=O)c1ccc(-c2ccc3nnn(Cc4ccc5ncccc5c4)c3n2)cc1F [Ex 60, N-tert-Butyl-2-fluoro-4-(3-(quinolin-6-ylmethyl)-3H-[1,2,3]triazolo[4,5-b]pyridin-5-yl) benzamide] | < 25 | < 25 | –
28 | 162 to 164 | C=CCNC(=O)c1ccc(-c2ccc3nnn(Cc4ccc5ncccc5c4)c3n2)cc1F [Ex 61, N-Allyl-2-fluoro-4-(3-(quinolin-6-ylmethyl)-3H-[1,2,3]triazolo[4,5-b]pyridin-5-yl) benzamide] | 75 to 100 | 75 to 100 | –
29 | 197 to 199 | CONC(=O)c1ccc(-c2ccc3nnn(Cc4ccc5ncccc5c4)c3n2)cc1F [Ex 62, 2-Fluoro-N-methoxy-4-(3-(quinolin-6-ylmethyl)-3H-[1,2,3]triazolo[4,5-b]pyridin-5-yl)benzamide] | – | – | Inhibition (% Inhibition of MKN-45 proliferation) (MKN-45 cells; MKN-45 proliferation, 0.1 μM): A (A = ≥75 to 100%); % inhibition @ 1 uM (MKN-45 cells; MKN-45 proliferation, 1 μM): A (A = ≥75 to 100%)
30 | 220 to 223 | CC(=O)Nc1ccc(-c2ccc3nnn(Cc4ccc5ncccc5c4)c3n2)cc1 [Ex 63, N-(4-(3-(quinolin-6-ylmethyl)-3H-[1,2,3]triazolo[4,5-b]pyridin-5-yl)phenyl)acetamide] | 50 to 75 | < 25 | –
31 | 187 to 190 | COc1ccc(-c2ccc3nnn(Cc4ccc5ncccc5c4)c3n2)cc1F [Ex 66, 6-((5-(3-Fluoro-4-methoxyphenyl)-3H-[1,2,3]triazolo[4,5-b]pyridin-3-yl)methyl)quinoline] | 25 to 50 | < 25 | –
32 | 292 to 294 | NCCCNC(=O)c1ccc(-c2ccc3nnn(Cc4ccc5ncccc5c4)c3n2)cc1F [Ex 112, N-(3-Aminopropyl)-2-fluoro-4-(3-(quinolin-6-ylmethyl)-3H-[1,2,3]triazolo[4,5-b]pyridin-5-yl)benzamide] | – | – | –
